Tests used:
Experiment in all cases: Alamar Blue cytotoxicity assay
Format in all cases: cell-based
[1] = test system: NCI-H520; conditions: Homo sapiens; NCI-H520 (Lung), 72 h
Description: (§1) Alamar Blue™ Cytotoxicity Assays
(§2) The Alamar Blue™ assay is designed to measure quantitatively the proliferation of cells by incorporating a fluorometric/colorimetric growth indicator based on the detection of metabolic activity.
(§3) Cell culture: The various human tumor cell lines can be purchased from American Type Culture Collection (ATCC) or the German Collection of Microorganisms and Cell Cultures (DSMZ) and cultivated in 75 to 175 cm^2 tissue culture flasks in the medium indicated by the supplier. The cells are maintained at 37° C. and 5% CO2 in a humidified atmosphere, with an appropriate split ratio. Logarithmically growing cells are used for the assays.
(§4) Assay conditions: On day one of the experiment 1000-4000 cells (in 100 μl medium) are seeded into each well of a sterile 96-well plate. The number of cells used is dependent on the growth rate and size of the cells. Eight wells on each plate are left free to accommodate for controls (4 wells for medium plus reduced AlamarBlue™, and 4 wells for medium plus oxidized AlamarBlue™). The plates are kept in the incubator overnight. On day two of the experiment serial dilutions of the inhibitor are prepared in medium containing 0.1% DMSO. Typical concentrations used are 10, 3, 1, 0.3, 0.1, 0.03, 0.01, 0.003 and 0.001 μM. 100 μl of the dilution (2× concentrate) is added to each well to yield a final volume of 200 μl per well. As controls plain medium and medium containing 0.1% DMSO are added to the designated wells. All data points are done in quadruplicates. The cells are then incubated for 72 h. After this incubation period 20 μl of AlamarBlue™ is added to each well. As a control, 20 μl of reduced AlamarBlue™ (AlamarBlue™ autoclaved for 30 min) is added to 4 wells without cells, and 20 μl of AlamarBlue™ is added to the remaining 4 wells without cells. After 4-5 h of incubation, the plates are measured in a fluorescence spectrophotometer (excitation 530 nm, emission 590 nm, slits 15, integrate time 0.1).
(§5) Data analysis: For calculation the mean value from the quadruplicates is taken and the background is subtracted. The 0.1% DMSO value (the mean obtained from 8 wells with cells in medium with 0.1% DMSO but no compound) is taken as 100% control. The data is fitted by iterative calculations using a sigmoidal curve analysis program (Graph Pad Prism version 3.03) with variable Hill slope.

[2] = test system: HCT116; conditions: Homo sapiens, HCT-116; HCT116 (Colon), 72 h
Description: as §1, §2, §3, §4, §5

[3] = test system: HeLa S3; conditions: Homo sapiens; HeLa S3 (Cervix), 72 h
Description: as §1, §2, §3, §4, §5

[4] = test system: BxPC-3; conditions: Homo sapiens; BxPC-3 (Pancreas), 72 h
Description: as §1, §2, §3, §4, §5

[5] = test system: NCI-H460; conditions: Homo sapiens; NCI-H460 (Lung), 72 h
Description: as §1, §2, §3, §4, §5

[6] = test system: DU145; conditions: Homo sapiens, DU-145; DU145 (Prostate), 72 h
Description: as §1, §2, §3, §4, §5

[7] = test system: A549; conditions: Homo sapiens; A549 (Lung), 72 h
Description: as §1, §2, §3, §4, §5

[8] = test system: HT29; conditions: Homo sapiens, HT-29; HT29 (Colon), 72 h
Description: as §1, §2, §3, §4, §5

[9] = test system: GRANTA-519; conditions: Homo sapiens; GRANTA-519 (Lymphoma), 72 h
Description: as §1, §2, §3, §4, §5

[10] = test system: SKOV-3; conditions: Homo sapiens, SK-OV-3; SKOV-3 (Ovary), 72 h
Description: as §1, §2, §3, §4, §5

[11] = test system: PC-3; conditions: Homo sapiens; PC-3 (Prostate), 72 h
Description: as §1, §2, §3, §4, §5

[12] = test system: SK-UT-1B; conditions: Homo sapiens, Skut1B; SK-UT-1B (Uterus), 72 h
Description: as §1, §2, §3, §4, §5

[13] = test system: A431; conditions: Homo sapiens, A-431; A431 (Vulva), 72 h
Description: as §1, §2, §3, §4, §5

[14] = test system: MES-SA; conditions: Homo sapiens; MES-SA (Uterus), 72 h
Description: as §1, §2, §3, §4, §5

[15] = test system: HepG2; conditions: Homo sapiens; HepG2 (Liver), 72 h
Description: as §1, §2, §3, §4, §5

[16] = test system: H4; conditions: Homo sapiens; H4 (Brain), 72 h
Description: as §1, §2, §3, §4, §5

[17] = test system: Mia CaPa-2; conditions: Homo sapiens; Mia CaPa-2 (Pancreas), 72 h
Description: as §1, §2, §3, §4, §5

[18] = test system: Colo 205; conditions: Homo sapiens; Colo 205 (Colon), 72 h
Description: as §1, §2, §3, §4, §5

[19] = test system: THP-1; conditions: Homo sapiens; THP-1 (Leukemia), 72 h
Description: as §1, §2, §3, §4, §5

[20] = test system: FaDu; conditions: Homo sapiens; FaDu (Head and Neck), 72 h
Description: as §1, §2, §3, §4, §5

[21] = test system: NCI-N87; conditions: Homo sapiens; NCI-N87 (Stomach), 72 h
Description: as §1, §2, §3, §4, §5

## CC[C@@H]1C(=O)N(C)c2cnc(Nc3ccc(C(=O)NC4CCN(C)CC4)cc3OC)nc2N1C1CCCC1 [4-[[(7R)-8-cyclopentyl-7-ethyl-5,6,7,8-tetrahydro-5-methyl-6-oxo-2-pteridinyl]amino]-3-methoxy-N-(1-methyl-4-piperidinyl)-benzamide]
[1]
  EC50: 10 nM
[2]
  EC50: 9 nM
[3]
  EC50: 12 nM
[4]
  EC50: 25 nM
[5]
  EC50: 14 nM
[6]
  EC50: 6 nM
[7]
  EC50: 6 nM
[8]
  EC50: 4 nM
[9]
  EC50: 5 nM
[10]
  EC50: 4 nM
[11]
  EC50: 7 nM
[12]
  EC50: 8 nM
[13]
  EC50: 2 nM
[14]
  EC50: 10 nM
[15]
  EC50: 10 nM
[16]
  EC50: 22 nM
[17]
  EC50: 7 nM
[18]
  EC50: 9 nM
[19]
  EC50: 9 nM
[20]
  EC50: 6 nM
[21]
  EC50: 14 nM
